Source: US6555533B2, “Use of certain substituted caprolactams in treating tumors” (Novartis AG, priority 1998, dated 2003)
Where two headings read alike, the source gives them in different places. Marks after values point to notes of the source that are not given here.

What was measured:
[1] = system: MDA-MB-435 tumor xenografts; experiment: MDA-MB-435 breast carcinoma xenograft model; assay type: in vivo, athymic (nu/nu) mice
Protocol: Positive controls are carried out with doxorubicin administered 3 times per week i.v.
The following results were obtained for compounds of Ex.1-Ex.12 tested against MDA-MB-435 tumor xenografts 3×/week for 3 weeks: […]

[2] = system: HCT-116 colon carcinoma; experiment: Anchorage Dependent Growth Monolayer Assay (ADGMA), HCT-116; assay type: cell-based, human; conditions: 3-day exposure, MTS readout, read-out: IC50 (average±S.D.) HCT-116
Protocol: (§1) As indicated above, all of the compounds of formula I, and their corresponding pharmaceutically acceptable acid addition salts, are anti-tumor agents and are, therefore, useful in inhibiting the growth of various lymphomas, sarcomas, carcinomas, myelomas, and leukemia cell lines.
(§2) The ADGMA compares the number of viable cells following a 3-day exposure to a test compound relative to a number of cells present at the time the test compound was added. […] The absorbance at 490 nm (A490) of the formazan derivative is proportional to the number of viable cells. The IC50 for a test compound is the concentration of compound required to reduce the final cell number to 50% of the final control cell number. If cell proliferation is inhibited, the assay further defines compounds as cytostatic (cell number after 3-day compound incubation >cell number at time of compound addition) or cytotoxic (cell number after 3-day compound incubation <cell number at time of compound addition).
(§3) A549, HCT-116 and PC-3 cells were maintained in RPMI 1640 containing 5% FBS, […], 1 nM β-estradiol, 1 nM testosterone, 100 units/mL penicillin and 100 ug/mL streptomycin.
(§4) Cell lines are trypsinized and counted using a Coulter counter to determine plating densities. Cells are then plated in their respective maintenance media (100 μL/well) in 96 well plates at the following densities: MDA-MB-435, 3,000 cells/well; A549 and HCT-116, 700 cells/well; are PC-3, 2500 cells/well. The number of cells plates as determined in preliminary experiments, results in cell densities of 75-90% of confluency by 4 days after plating. Initial cell densities, assayed one day after plating, are roughly 0.15-0.20 absorbance units greater than the media blank. Ninety-six well plates are seeded on day 0 and the test compounds are added on day 1. A control plate is created for each cell line that receives media only in row A and cells in row B. One day following plating, test compounds are added (in a final volume of 100 μL) to the test plates. Control plates receive 10 μL MTS mixture (prepared fresh on day of addition to cell plates at a ratio of 10 μL of a 0.92 mg/mL solution of PMS to a 190 μL of a 2 mg/mL solution of MTS) and 100 μL media. A490 of control plates is read 4 h after MTS addition to determine initial cell density values for each cell line. Three days after addition of test compound, 10 μL/well of MTS mixture is added to the test plates and A490 is read 4 h later. A490 values for wells containing cells are corrected for media absorbance, then normalized to initial density readings to determine percent net growth. IC50 values are determined from graphs of percent net growth as a function of compound concentration. Percent net growth is calculated as (Cell+Drug A490−Initial A490/Cell+Drug Vehicle A490−Initial A490).

[3] = system: A549 non-small cell lung carcinoma; experiment: Anchorage Dependent Growth Monolayer Assay (ADGMA), A549; assay type: cell-based, human; conditions: 3-day exposure, MTS readout, read-out: IC50 (average±S.D.) A549
Protocol: as §1, §2, §3, §4

[4] = system: PC-3 prostate carcinoma; experiment: Anchorage Dependent Growth Monolayer Assay (ADGMA), PC-3; assay type: cell-based, human; conditions: 3-day exposure, MTS readout, read-out: IC50 (average±S.D.) PC-3
Protocol: as §1, §2, §3, §4

[5] = system: MDA-MB-435 breast carcinoma; experiment: Anchorage Dependent Growth Monolayer Assay (ADGMA), MDA-MB-435; assay type: cell-based, human; conditions: 3-day exposure, MTS readout, read-out: IC50 (average±S.D.) MDA-MB-435
Protocol: as §1, §2
The MDA-MB-435 breast carcinoma line was obtained from the American Type Culture Collection (ATCC) and used between passages 4-20 following thawing. MDA-MB-435 breast carcinoma was maintained and plated in DME/F12 medium containing 10% fetal bovine serum, 15 mM HEPES (pH=7.4), 100 units/mL penicillin, and 100 μg/mL streptomycin.
as §4

[6] = system: A549 tumor xenografts
Source text: Utilizing this model, one can measure the ability of test compounds to inhibit the growth of human tumor xenografts growing subcutaneously (s.c.) in athymic nude mice. The histologic tumor types employed were MDA-MB-435 breast, A549 non-small cell lung, HCT-116 colon and PC-3 prostate carcinomas.
A549 non-small cell lung carcinoma xenograft model: Briefly, 10 million cells were implanted s.c. into the right flank of athymic (nu/nu) mice, and were allowed to grow until a mass of approximately 120 mm^3 was established. The test compounds are administered three times per week intravenously (i.v.) for three weeks in 5% dextrose, 10%DMSO in water. The test compounds are administered in dose-response fashion in order to evaluate and document the full potential range of activity (efficacy and toxicity) for a given compound. Positive controls are carried out with mitomycin C administered 3 times per week intraperitioneally (i.p.).
Toxicity was monitored by recording average group body weights twice weekly, and by daily observation of general health. Efficacy was monitored by taking measurements of tumor length, width, and depth weekly using digital calipers coupled to automated data collectors. Mean tumor volume (MTV) at initiation of therapy was subtracted from final MTV in order to express the actual tumor growth during treatment (ΔMTV). Anti-tumor activity was expressed as %T/C (ΔMTV of treated group÷ΔMTV of control group×100). Regressions were calculated using the formula: (T/T0−1)×100%, where T is the tumor volume for the treatment group at the end of the experiment, and T0 is the tumor volume at the beginning of the experiment. Statistical significance was evaluated using a one-tailed Student's t-test (p<0.05).

[7] = system: HCT-116 tumor xenografts; experiment: HCT-116 colon carcinoma xenograft model; assay type: in vivo, athymic (nu/nu) mice
Protocol: Positive controls are carried out with 5-fluorouracil administered 1 time per week i.v.

[8] = H2O solubility; assay type: physicochemical; conditions: water; for Example 1 stated for the solid before preparative hplc
[9] = system: PC-3 tumor xenografts; experiment: PC-3 prostate carcinoma xenograft model; assay type: in vivo, athymic (nu/nu) mice
[10] = 2 mg/kg i.v. 3 times per week (positive control)
[11] = 10 μmol/kg i.v. 3×/week for 3 weeks
[12] = 33 μmol/kg i.v. 3×/week for 3 weeks
[13] = 100 μmol/kg i.v. 3×/week for 3 weeks

SMILES	IC50 ([2]; Homo sapiens, HCT-116, 72 h) [nM]	IC50 ([3]; Homo sapiens, A549, 72 h) [nM]	IC50 ([4]; Homo sapiens, 72 h) [nM]	% T/C [1, 11]	Dead/Total [1, 11]	% T/C [1, 12]	Dead/Total [1, 12]	% T/C [6, 12]	Dead/Total [6, 12]	Δ MTV [6, 12] [mm^3]	Dead/Total [6, 13]	Δ MTV [6, 13] [mm^3]	% T/C [7, 11]	Dead/Total [7, 11]	Δ MTV [7, 11] [mm^3]	% T/C [7, 12]	Dead/Total [7, 12]	Δ MTV [7, 12] [mm^3]	% T/C [7, 13]	Dead/Total [7, 13]	further results
COc1cccc2c1C(=O)c1c(O)c3c(c(O)c1C2=O)C[C@@](O)(C(=O)CO)C[C@@H]3O[C@H]1C[C@H](N)[C@H](O)[C@H](C)O1 [doxorubicin, reference compound]	39 ± 6	504 ± 320	327 ± 123																		% T/C [1, 10]: 42* %; Dead/Total [1, 10]: 0/8; IC50 ([5]; Homo sapiens, MDA-MB-435, 72 h): 399 ± 314 nM
CO[C@@H](C(=O)N[C@H]1CC[C@@H](OC(=O)CCc2cccnc2)CNC1=O)[C@H](O)[C@@H](O)[C@H](O)/C=C/C(C)(C)C [Ex. 5, (2R, 3R, 4S, 5R, 6E)-3,4,5-Trihydroxy-2-methoxy-8,8-dimethyl-N-[(3S, 6R)-hexahydro-2-oxo-6-(1-oxo-3-[3-pyridyl]propoxy)-2H-azepin-3-yl]non-6-enamide]	464 ± 142	1040 ± 758	348 ± 26	92%	0/8	44* %	0/8	46%	0/8	35	0/8	18	93%	0/8	376	67* %	0/8	270	28* %	0/8	% T/C [6, 11]: 50%; Dead/Total [6, 11]: 0/8; Δ MTV [6, 11]: 38 mm^3; % T/C [6, 13]: 24* %; Δ MTV [7, 13]: 111 mm^3
CO[C@@H](C(=O)N[C@H]1CC[C@@H](OC(=O)C2CCCC2)CNC1=O)[C@H](O)[C@@H](O)[C@H](O)/C=C/C(C)(C)C [Ex. 2]				67%	0/8	13* %	0/8	37* %	0/8	28	0/7	7	75%	0/8	303	56* %	0/8	225	25* %	0/8	IC50 [2]: 120 ± 29 nM; IC50 [3]: 201 ± 100 nM; % T/C [6, 11]: 58%; Dead/Total [6, 11]: 0/8; Δ MTV [6, 11]: 44 mm^3; % T/C [6, 13]: 9* %; Δ MTV [7, 13]: 102 mm^3; H2O solubility [8]: 18 mg/mL; IC50 [4]: 145 ± 53 nM; IC50 [5]: 128 ± 47 nM
CO[C@@H](C(=O)N[C@H]1CC[C@@H](OC(=O)C2CCCCC2)CNC1=O)[C@H](O)[C@@H](O)[C@H](O)/C=C/C(C)(C)C [Ex. 1, (2R, 3R, 4S, 5R, 6E)-3,4,5-Trihydroxy-2-methoxy-8,8-dimethyl-N-[(3S, 6R)-hexahydro-2-oxo-6-(cyclohexylcarbonyl)oxy-2H-azepin-3-yl]non-6-enamide]	41 ± 3	78 ± 38	39 ± 13	61* %	0/8	24* %	0/8	38%	0/8	29	1/8	11	89%	0/8	360	35* %	0/8	142	10* %	0/8	% T/C [9, 11]: 87%; Dead/Total [9, 11]: 0/7; Δ MTV [9, 11]: 1931 mm^3; % T/C [9, 12]: 32%; Dead/Total [9, 12]: 0/8; Δ MTV [9, 12]: 718 mm^3; % T/C [9, 13]: 8* %; Dead/Total [9, 13]: 1/8; Δ MTV [9, 13]: 185 mm^3; % regression [1, 13]: 29 regression* %; Dead/Total [1, 13]: 0/8; Δ MTV [1, 13]: −11 mm^3; % T/C [6, 11]: 42%; Dead/Total [6, 11]: 0/8; Δ MTV [6, 11]: 32 mm^3; % T/C [6, 13]: 14* %; Δ MTV [7, 13]: 42 mm^3; IC50 ([5]; Homo sapiens, MDA-MB-435, 72 h): 41 ± 26 nM
CO[C@@H](C(=O)N[C@H]1CC[C@@H](OC(=O)CCc2ccccc2)CNC1=O)[C@H](O)[C@@H](O)[C@H](O)/C=C/C(C)(C)C [Ex. 4, (2R, 3R, 4S, 5R, 6E)-3,4,5-Trihydroxy-2-methoxy-8,8-dimethyl-N-[(3S, 6R)-hexahydro-2-oxo-6-(1-oxo-3-phenylpropoxy)-2H-azepin-3-yl]non-6-enamide]	7 ± 3	20 ± 9	7 ± 4	53* %	0/8	12* %	0/8	17* %	0/8	13	1/8	−10	70* %	0/8	280	22* %	0/8	87	11* %	1/8	% T/C [9, 11]: 77%; Dead/Total [9, 11]: 0/8; Δ MTV [9, 11]: 1722 mm^3; % T/C [9, 12]: 29%; Dead/Total [9, 12]: 0/8; Δ MTV [9, 12]: 638 mm^3; % T/C [9, 13]: 4* %; Dead/Total [9, 13]: 0/8; Δ MTV [9, 13]: 100 mm^3; % regression [1, 13]: 58 regression* %; Dead/Total [1, 13]: 0/8; Δ MTV [1, 13]: −23 mm^3; % regression [6, 13]: 22 regression* %; Δ MTV [7, 13]: 44 mm^3; IC50 ([5]; Homo sapiens, MDA-MB-435, 72 h): 12 ± 14 nM
